Experimental data reported in patent US6906205B2, “Spiro and dispiro 1,2,4-trioxolane antimalarials” (Medicines for Malaria Venture MMV, priority 2002, dated 2005).
Converted amounts (≈) assume the structure as drawn. Read-outs that look alike come from different tables or passages of the source.

Legend:
[1] = test system: P. falciparum K1 strain (Thailand resistant to chloroquine); experiment: semiautomated microdilution assay, [3H]-hypoxanthine incorporation, K1 strain; type: cell-based, Plasmodium falciparum; details: for IC50: Plasmodium falciparum, read-out: IC50 (ng/ml) K1
Method: (§1) Various OZ compounds were tested by the semiautomated microdilution assay against intraerythrocytic forms of Plasmodium falciparum derived from asynchronous stock cultures.
(§2) Fifty percent inhibitory concentration (IC50) were estimated by Logit regression analysis.

[2] = test system: P. falciparum NF54 strain (sensitive to standard antimalarials); experiment: semiautomated microdilution assay, [3H]-hypoxanthine incorporation, NF54 strain; type: cell-based, Plasmodium falciparum; details: for IC50: Plasmodium falciparum, read-out: IC50 (ng/ml) NF54
Method: as §1, §2

[3] = test system: ANKA strain of P. berghei; experiment: single dose STI in vivo screen in infected mice; design: species or system Plasmodium berghei; details: for Activity (%) po / Activity (%) sc / Activity (%) SSVpo: percent reduction in parasitemia day 3 post-infection, mice; for Activity (%) po / Survival (days) po: single 10 mg/kg po in 3% ethanol and 7% Tween 80; for Activity (%) sc / Survival (days) sc: single 10 mg/kg sc in 3% ethanol and 7% Tween 80; for Survival (days) po / Survival (days) sc / Survival (days) SSVpo: untreated control 5.6 ± 0.3; for Activity (%) SSVpo: single po dose in standard suspending vehicle (SSV); for Survival (days) SSVpo: single po dose in SSV
Method: In the single dose STI in vivo screen, Moro SPF or NMRI mice infected with the ANKA strain of P. berghei (groups of 3-5 mice) were treated on day one post-infection with trioxolanes dissolved or suspended in 3% ethanol and 7% Tween 80. […] SSV consists of 0.5% w/v CMC, 0.5% v/v benzyl alcohol, 0.4% v/v Tween 80, and 0.9% w/v sodium chloride in water. Antimalarial activity was measured by percent reduction in parasitemia on day three post-infection and survival times compared to an untreated control group. Survival to day 30 post-infection is considered to be a cure. […] Other factors influencing antimalarial activity include the stability of carbon radicals formed by β-scission subsequent to the initial electron transfer to the peroxide bond and the influence of steric effects remote from the peroxide bond on the interactions between carbon radicals and potential drug targets.

| Compound | IC50 (ng/ml) K1 ([1]; K1 strain, 72 h incubation) | IC50 (ng/ml) NF54 ([2]; NF54 strain, 72 h incubation) | Activity (%) po [3] | Activity (%) sc [3] | Survival (days) po [3] | Survival (days) sc [3] | IC50 ([1]; K1 strain, 72 h incubation) | IC50 ([2]; NF54 strain, 72 h incubation) | IC50 ([1]; K1, 72 h) | IC50 ([2]; NF54, 72 h) | Activity (%) SSVpo [3] | Survival (days) SSVpo [3] |
| --- | --- | --- | --- | --- | --- | --- | --- | --- | --- | --- | --- | --- |
| O=C1CC2CC(C1)CC1(C2)OOC2(O1)C1CC3CC(C1)CC2C3 (centres unmarked) [OZ13] | 0.40 ng/mL (≈ 1.26 nM) | 0.50 ng/mL (≈ 1.57 nM) | 56% | 99.7% | 6.7 days | 9.7 days |  |  |  |  |  |  |
| O=C1CCC2(CCO1)OOC1(O2)C2CC3CC(C2)CC1C3 (centres unmarked) [OZ17] |  |  | 0% | 18% | 5.3 days | 6.3 days | 85 ng/mL (≈ 289 nM) | > 100 ng/mL |  |  |  |  |
| OC1CCC2(CC1)OOC1(O2)C2CC3CC(C2)CC1C3 (centres unmarked) [OZ32] |  |  | 79% | 91% | 6.7 days | 8.7 days |  |  | 0.25 ng/mL (≈ 0.892 nM) | 0.51 ng/mL (≈ 1.82 nM) | 93% | 7.0 days |
| c1ccc(C2(c3ccccc3)CCC3(CC2)OOC2(O3)C3CC4CC(C3)CC2C4)cc1 (centres unmarked) [OZ34] | 42 ng/mL (≈ 101 nM) | 60 ng/mL (≈ 144 nM) | 0/NA/0% | 0/NA/0% | 5.3 days | 5.7 days |  |  |  |  |  |  |
| O=C1c2ccccc2C(=O)N1N=C1CCC2(CC1)OOC1(O2)C2CC3CC(C2)CC1C3 (centres unmarked) [OZ38] | 0.86 ng/mL (≈ 2.04 nM) | 1.3 ng/mL (≈ 3.08 nM) | 83% | 99.98% | 6.7 days | 25.3 days |  |  |  |  | 15% | 5.0 days |
| Cc1ccc(S(=O)(=O)NN=C2CCC3(CC2)OOC2(O3)C3CC4CC(C3)CC2C4)cc1 (centres unmarked) [OZ39] | 1.4 ng/mL (≈ 3.14 nM) | 1.8 ng/mL (≈ 4.03 nM) | 61% | 99.3% | 6.3 days | 7.7 days |  |  |  |  |  |  |
| CC(C)C1CCC2(CC1)OOC1(O2)C2CC3CC(C2)CC1C3 (centres unmarked) [OZ40] | 1.4 ng/mL (≈ 4.57 nM) | 2.0 ng/mL (≈ 6.53 nM) | 99% | 99.8% | 7.3 days | 9.0 days |  |  |  |  |  |  |
| Fc1ccc(C2CCC3(CC2)OOC2(O3)C3CC4CC(C3)CC2C4)cc1 (centres unmarked) [OZ41] | 3.5 ng/mL (≈ 9.76 nM) | 4.6 ng/mL (≈ 12.8 nM) | 99.98% | 99.5% | 12.1 days | 10.7 days |  |  |  |  | 81% | 6.8 days |
| c1ccc(C2(c3ccccc3)OOC3(O2)C2CC4CC(C2)CC3C4)cc1 (centres unmarked) [OZ42] | 2.3 ng/mL (≈ 6.6 nM) | 2.6 ng/mL (≈ 7.46 nM) | 68% | 92% | 6.0 days | 7.0 days |  |  |  |  |  |  |
| Fc1ccc(C2(c3ccc(F)cc3)OOC3(O2)C2CC4CC(C2)CC3C4)cc1 (centres unmarked) [OZ44] | 2.5 ng/mL (≈ 6.5 nM) | 2.3 ng/mL (≈ 5.98 nM) | 99.3% | 99.9% | 7.0 days | 8.3 days |  |  |  |  |  |  |
| Fc1c(F)c(F)c(C2(c3c(F)c(F)c(F)c(F)c3F)OOC3(O2)C2CC4CC(C2)CC3C4)c(F)c1F (centres unmarked) [OZ45] | 17 ng/mL (≈ 32.2 nM) | 27 ng/mL (≈ 51.1 nM) | 15% | 16% | 6.0 days | 5.0 days |  |  |  |  |  |  |
| Clc1ccc(C2CCC3(CC2)OOC2(O3)C3CC4CC(C3)CC2C4)cc1 (centres unmarked) [OZ47] | 7.5 ng/mL (≈ 20 nM) | 7.4 ng/mL (≈ 19.7 nM) | 99.98% | 99% | 12.7 days | 8.0 days |  |  |  |  |  |  |
| Cc1ccc(S(=O)(=O)N2CCC3(CC2)OOC2(O3)C3CC4CC(C3)CC2C4)cc1 (centres unmarked) [OZ51] | 2.5/2.5 ng/ml | 2.5/2.5 ng/ml | 89% | 100% | 7.0 days | 14 days |  |  |  |  |  |  |
| c1ccc(CC2(Cc3ccccc3)OOC3(O2)C2CC4CC(C2)CC3C4)cc1 (centres unmarked) [OZ52] | 3.1 ng/mL (≈ 8.23 nM) | 3.0 ng/mL (≈ 7.97 nM) | 88% | 99.7% | 6.7 days | 8.0 days |  |  |  |  |  |  |
| O=C(O)CON=C1CCC2(CC1)OOC1(O2)C2CC3CC(C2)CC1C3 (centres unmarked) [OZ54] | 32 ng/mL (≈ 91.1 nM) | 35 ng/mL (≈ 99.6 nM) | 85% | 97% | 7.0/NA/7.0 days | 7.0/NA/7.0 days |  |  |  |  |  |  |
| O=S(=O)(c1ccc(Cl)cc1)N1CCC2(CC1)OOC1(O2)C2CC3CC(C2)CC1C3 (centres unmarked) [OZ57] | 3.1 ng/mL (≈ 7.05 nM) | 2.8 ng/mL (≈ 6.36 nM) | 32% | 98.4% | 6.0 days | 7.7 days |  |  |  |  |  |  |
| O=C(O)CCC(=O)N1CCC2(CC1)OOC1(O2)C2CC3CC(C2)CC1C3 (centres unmarked) [OZ58] | 7.1 ng/mL (≈ 19.4 nM) | 7.2 ng/mL (≈ 19.7 nM) | 39% | 52% | 6.0 days | 6.3 days |  |  |  |  |  |  |
| COc1ccc(S(=O)(=O)N2CCC3(CC2)OOC2(O3)C3CC4CC(C3)CC2C4)cc1 (centres unmarked) [OZ59] | 1.4 ng/mL (≈ 3.21 nM) | 1.3 ng/mL (≈ 2.98 nM) | 51% | 99.95% | 6.0 days | 10.0 days |  |  |  |  |  |  |
| O=S(=O)(c1ccccc1)N1CCC2(CC1)OOC1(O2)C2CC3CC(C2)CC1C3 (centres unmarked) [OZ60] | 1.1 ng/mL (≈ 2.71 nM) | 1.2 ng/mL (≈ 2.96 nM) | 71% | 100% | 6.0 days | 10.3 days |  |  |  |  |  |  |
| CCOC(=O)CC1CCC2(CC1)OOC1(O2)C2CC3CC(C2)CC1C3 (centres unmarked) [OZ61] |  |  | 91% | 96% | 7.0 days | 7.3 days | 0.52 ng/mL (≈ 1.48 nM) | 0.53 ng/mL (≈ 1.51 nM) |  |  |  |  |
| c1ccc(C2CCC3(CC2)OOC2(CCC(c4ccccc4)CC2)O3)cc1 (centres unmarked) [OZ62] | 33 ng/mL (≈ 90.5 nM) | 28 ng/mL (≈ 76.8 nM) | 0/NA/0% | 0/NA/0% | 6.0 days | 5.0 days |  |  |  |  |  |  |
| N#CC1(c2ccccc2)CCC2(CC1)OOC1(O2)C2CC3CC(C2)CC1C3 (centres unmarked) [OZ63] | 1.6/1.6 ng/ml | 1.6/1.6 ng/ml | 99.62% | 99.91% | 7.3 days | 9.3 days |  |  |  |  | 65% | 6.0 days |
| CC(C)(C)COC(=O)C1CCC2(CC1)OOC1(O2)C2CC3CC(C2)CC1C3 (centres unmarked) [OZ64] | 1.5 ng/mL (≈ 3.96 nM) | 1.3 ng/mL (≈ 3.43 nM) | 95% | 98% | 7.3 days | 8.0 days |  |  |  |  |  |  |
| O=S(=O)([O-])OC1CCC2(CC1)OOC1(O2)C2CC3CC(C2)CC1C3.[Na+] (centres unmarked) [OZ65] | 57 ng/mL | 65 ng/mL | 0% | 1% | 5.0/NA/5.0 days | 5.0/NA/5.0 days |  |  |  |  |  |  |
| Fc1ccc(C2(c3ccc(F)cc3)OOC3(CCC(c4ccccc4)CC3)O2)cc1 (centres unmarked) [OZ66] | 44 ng/mL (≈ 108 nM) | 36 ng/mL (≈ 88.1 nM) | 0/NA/0% | 0/NA/0% | 5.3 days | 5.7 days |  |  |  |  |  |  |
| CC(=O)OC1(c2ccc(F)cc2)CCC2(CC1)OOC1(O2)C2CC3CC(C2)CC1C3 (centres unmarked) [OZ69] | 1.6 ng/mL (≈ 3.84 nM) | 1.4 ng/mL (≈ 3.36 nM) | 56% | 40% | 6.3/NA/6.3 days | 6.3/NA/6.3 days |  |  |  |  |  |  |
| CCOC(=O)C1CCC2(CC1)OOC1(O2)C2CC3CC(C2)CC1C3 (centres unmarked) [OZ70] |  |  | 98% | 94% | 7.7/NA/7.7 days | 7.7/NA/7.7 days | 1.2 ng/mL (≈ 3.57 nM) | 1.1 ng/mL (≈ 3.27 nM) |  |  |  |  |
| CCN(CC)C(=O)C1CCC2(CC1)OOC1(O2)C2CC3CC(C2)CC1C3 (centres unmarked) [OZ73] | 6.5 ng/mL (≈ 17.9 nM) | 8.2 ng/mL (≈ 22.6 nM) | 27% | 36% | 6.0 days | 6.7 days |  |  |  |  |  |  |
